Data set [1] concerns intracellular T. cruzi. Nature of the data set: Rate-of-kill assay (static-cidal assay in timecourse format). The data set is classed as cell-based, Trypanosoma cruzi (Silvio X10/7 A1) in Vero cells. The note with it: for MCC: Trypanosoma cruzi, -LOG(MCC[M]), minimum cidal concentration, lowest concentration clearing at least half as many Vero cells as Nifurtimox (50μM) within 96 h, read-out: pMCC (RoK) (converted); for final residual level of infection (percent infected cells at the end of the assay): end of rate-of-kill timecourse (96 h); for rate-of-kill profile (onset / rate of cidal activity): timepoints every 24h up to 96 h. The method, then: The rate-of-kill assay uses the same protocol as the static-cidal assay but plates are incubated for 24, 48, 72 and 96 hours prior to fixing. Percent infected data is plotted as a time-course for each compound at every concentration. The minimum cidal concentration (MCC) is defined as the lowest concentration of compound that clears at least half as many Vero cells of intracellular parasites as Nifurtimox (50μM) within the timeframe of the assay.
To obtain rate-of-kill information we carried out the static-cidal assay in timecourse format (Fig 4A), with timepoints taken every 24h.

The subject of another data set is Vero cells. Nature of the data set: Host cell toxicity read-out of the primary assay (Vero cell count). The format is cell-based. The note with it: Chlorocebus sabaeus, Vero; hits of the bio-actives screen, 10-point dose-response, top concentration 50μM, 72h; read-out: pEC50 (Vero) (converted). Here is the method:
(§1) The compounds tested were obtained from the NIH (Clinical Collection) and from SelleckChem (FDA-approved drug library). Compounds were dispensed into black 384-well assay plates (Corning) by acoustic dispensing (LabCyte ECHO). […] Potencies are reported as pEC50 (-LOG(EC50[M])).
(§2) For the primary intracellular assay the infection conditions were chosen so that no trypomastigote egress occurs during the compound incubation time. First, Vero cells were infected overnight with tissue culture derived T. cruzi trypomastigotes in T225 tissue culture flasks (MOI 5). Next, any remaining free trypomastigotes were washed away with serum free MEM and the infected Vero cells were harvested by trypsinisation. The infected Vero cells were then plated into 384-well plates containing the compounds to be tested, at 4000 cells per well in MEM media with 1% FCS. […] The plates were imaged on a Perkin Elmer Operetta high-content imaging system using a 20x objective. Images were analysed using the Columbus system (Perkin Elmer). The algorithm for the primary assay first identified the Vero nuclei followed by demarcation of the cytoplasm and identification of intracellular amastigotes. This algorithm reported mean number of parasites per Vero cell and total number of Vero cells. Data analysis was as described in [22]. […] Hits from the primary screen were selected based on the following criteria: T. cruzi activity (percent inhibition) > (median T. cruzi percent inhibition + 3 x robust Standard Deviation) and Vero activity (percent inhibition) < (median percent Vero inhibition + 3 x robust Standard Deviation).

Data set [2] deals with intracellular T. cruzi. Nature of the data set: Static-cidal assay (percent infected Vero cells, 96 h). The data set is classed as cell-based, Trypanosoma cruzi (Silvio X10/7 A1) in Vero cells. As to conditions: for MAX PI / maximum inhibition in the static-cidal assay: 96h timeframe of the assay. The method, then:
The secondary static-cidal assay uses the same protocol as the standard assay with the following changes: infection is done at MOI 10, and infected Vero cells are incubated 88h at 37°C in presence of 5% CO2 prior to trypsinisation and plating. Four hours after plating a control plate (no compounds) was fixed with formaldehyde as described above. Compound containing plates were fixed after incubation for 96 hours. Compounds are run as ten point dose response curves in triplicate. The algorithm for the secondary assay was similar to the primary assay but reported percent infected Vero cells instead of the mean number of parasites.
To assess screening hits for their ability to be cytocidal rather than cytostatic or growth slowing we developed a medium throughput (400 compounds / batch) assay to predict cidality of compounds against intracellular T. cruzi. […] Instead we developed an algorithm that assesses whether a Vero cell is infected or not, and we used the percentage of infected cells as primary measurement for the static-cidal assay. In order to readily identify cidal compounds we normalised the raw data using the starting level of infection as 0% effect and the final level of infection in presence of 50μM Nifurtimox as 100% effect control.

Data set [3] concerns intracellular T. cruzi amastigotes. Nature of the data set: Primary high-content intracellular T. cruzi amastigote assay. The format is cell-based, Trypanosoma cruzi (Silvio X10/7 A1) in Vero cells. Here is the method: as §1, §2
For data set [4] the following is noted: humans; cited from earlier work.
Another data set addresses CYP51 (Trypanosoma cruzi, UniProt Q7Z1V1). Nature of the data set: biochemical. The format is biochemical.
Setting [5] is: Trypanosoma cruzi, Vero, 96 h, 0% = starting level of infection, 100% = 50μM Nifurtimox at 96h, only from concentrations not toxic to the host cells, read-out: MAX PI (SC), Maximum Percent Inhibition in the static cidal assay.
Setting [6] is: Trypanosoma cruzi; hits of the bio-actives screen, 10-point dose-response, top concentration 50μM, 72h; read-out: pEC50 (cruzi) (converted).
The mark [7] stands for this setting: read-out: CYP51 pIC50 (converted).
Where [8] appears, read: Trypanosoma cruzi, 72 h; read-out: EC50.
[9] abbreviates: Trypanosoma cruzi, 72 h; read-out: Mean pEC50 (converted).

The values below come from paper PMC4833300, “Identification of Trypanocidal Activity for Known Clinical Compounds Using a New Trypanosoma cruzi Hit-Discovery Screening Cascade” (PLoS Neglected Tropical Diseases, 2016).

Read-outs that look alike come from different tables or passages of the source.

Sequence of CYP51 (Q7Z1V1 whole entry): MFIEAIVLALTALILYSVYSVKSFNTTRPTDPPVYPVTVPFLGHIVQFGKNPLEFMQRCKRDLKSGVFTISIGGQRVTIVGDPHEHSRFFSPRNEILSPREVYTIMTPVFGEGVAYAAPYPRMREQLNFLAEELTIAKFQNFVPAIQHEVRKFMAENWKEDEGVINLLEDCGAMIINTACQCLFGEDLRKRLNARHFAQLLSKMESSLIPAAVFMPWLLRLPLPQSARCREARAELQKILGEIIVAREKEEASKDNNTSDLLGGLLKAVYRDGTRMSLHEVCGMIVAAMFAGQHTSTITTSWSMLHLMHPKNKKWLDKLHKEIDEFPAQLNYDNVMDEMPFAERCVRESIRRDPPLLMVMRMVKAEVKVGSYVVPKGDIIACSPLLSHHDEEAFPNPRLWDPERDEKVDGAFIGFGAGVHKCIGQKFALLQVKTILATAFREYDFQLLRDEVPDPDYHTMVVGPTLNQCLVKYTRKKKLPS

As for `CCC(C)n1ncn(-c2ccc(N3CCN(c4ccc(OCC5COC(Cn6cncn6)(c6ccc(Cl)cc6Cl)O5)cc4)CC3)cc2)c1=O` (stereo not drawn) [Itraconazole], the MCC with intracellular T. cruzi [1] is 6.31e-08 M. Also, the EC50 in the data set on Vero cells is 15.8 µM; in data set [3] (setting [6]) it was 0.01 µM. Besides, in the data set with intracellular T. cruzi [2] (setting [5]), the Emax turned out to be 71%.

With `C[C@@H](c1ncncc1F)[C@](O)(Cn1cncn1)c1ccc(F)cc1F` [Voriconazole], the EC50 is 50.1 µM in the data set on Vero cells and 0.0251 µM in data set [3] (setting [6]). In addition, the Emax in the data set on intracellular T. cruzi [2] (setting [5]) is 70%.

Consider `CCOC(=O)C(C)(C)Oc1ccc(Cl)cc1` [Clofibrate], for which the MCC with intracellular T. cruzi [1] is 1.58e-05 M. Besides, the oral bioavailability entry in data set [4] is “reasonable oral bioavailability”. Besides, at CYP51, the IC50 was above 10 µM. In addition, the results for the EC50 (in the data set on Vero cells; in data set [3] (setting [6])) were 15.8 µM and 6.31 µM, respectively. For the same molecule, the Emax in the data set with intracellular T. cruzi [2] (setting [5]) came out at 116%.

Take `CC(C(O)c1ccc(O)cc1)N1CCC(Cc2ccccc2)CC1` (stereo not drawn) [Ifenprodil]: the MCC in the data set on intracellular T. cruzi [1] is 2e-06 M. Moreover, the oral bioavailability entry in data set [4] was “reasonable oral bioavailability”. The IC50 on CYP51 (setting [7]) is above 10 µM. Further, the figures for the EC50 (with Vero cells; in data set [3] (setting [6])) were 50.1 µM and 0.501 µM, respectively. Also, the Emax in the data set on intracellular T. cruzi [2] (setting [5]) was 117%.

Regarding `CCOC(=O)C1=C(COCCN)NC(C)=C(C(=O)OC)C1c1ccccc1Cl` (stereo not drawn) [Amlodipine], the IC50 at CYP51 (setting [7]) was above 10 µM. Moreover, in the data set on intracellular T. cruzi [2] (setting [5]), the Emax is 113%. The EC50 in data set [3] (setting [6]) is 0.501 µM.

With `Clc1ccccc1C(c1ccccc1)(c1ccccc1)n1ccnc1` [Clotrimazole], in the data set on intracellular T. cruzi [1], the MCC is 2.51e-08 M. Moreover, in the data set with intracellular T. cruzi [2] (setting [5]), the Emax worked out at 60%.

Consider `CC1CS(=O)(=O)CCN1/N=C/c1ccc([N+](=O)[O-])o1` (stereo not drawn) [Nifurtimox], for which, in the data set on intracellular T. cruzi [1], the MCC is 5.01e-06 M, the “final residual level of infection (percent infected cells at the end of the assay)” value is reported as ~ 8% and the “rate-of-kill profile (onset / rate of cidal activity)” value is “killing seen from 24h onwards”. The same molecule came in with an IC50 against CYP51 above 10 µM. Moreover, the “MAX PI / maximum inhibition in the static-cidal assay” value (shortened to “MAX PI / maximum inhibition”) in the data set on intracellular T. cruzi [2] was “around 100%”. The inhibition (commonly the relative decrease from the control value, in per cent) at 50 µM in the data set on intracellular T. cruzi [2] (setting [5]) was 103%. Also, the EC50 in data set [3] (setting [8]) came to 0.26 µM. In addition, the EC50 in data set [3] (setting [9]) was 0.251 µM.

Regarding `O=C1Cc2cc(CCN3CCN(c4nsc5ccccc45)CC3)c(Cl)cc2N1` [Ziprasidone], in the data set on intracellular T. cruzi [1], the MCC was 5.01e-06 M and the “rate-of-kill profile (onset / rate of cidal activity)” value is recorded as “fast onset of cidality”. For the same molecule, in data set [4], the oral bioavailability entry is on record as “reasonable oral bioavailability”. Also, at CYP51 (setting [7]), the IC50 is above 10 µM. In addition, in the data set with Vero cells, the EC50 was 25.1 µM. In addition, in the data set on intracellular T. cruzi [2] (setting [5]), the Emax was 111%. Moreover, the EC50 in data set [3] (setting [6]) was 1.58 µM.

Regarding `c1ccc(-c2ccc(C(c3ccccc3)n3ccnc3)cc2)cc1` (stereo not drawn) [Bifonazole], in the data set on intracellular T. cruzi [1], the MCC was 6.31e-08 M. In addition, the IC50 on CYP51 (setting [7]) is 0.0398 µM. Also, the EC50 in the data set with Vero cells was 15.8 µM; in data set [3] (setting [6]), 0.01 µM. In addition, in the data set on intracellular T. cruzi [2] (setting [5]), the Emax is 69%.

Turning to `CC[C@@H]([C@H](C)O)n1ncn(-c2ccc(N3CCN(c4ccc(OC[C@@H]5CO[C@@](Cn6cncn6)(c6ccc(F)cc6F)C5)cc4)CC3)cc2)c1=O` [Posaconazole], in the data set with intracellular T. cruzi [1], the MCC was 1e-07 M, the “final residual level of infection (percent infected cells at the end of the assay)” value is reported as ~ 15% and the “rate-of-kill profile (onset / rate of cidal activity)” value is “slower acting with a later onset of cidal activity”. The “MAX PI / maximum inhibition” value in the data set with intracellular T. cruzi [2] was determined as 60%. Further, the Emax in the data set with intracellular T. cruzi [2] (setting [5]) is 59%. In addition, the EC50 in data set [3] (setting [8]) was 0.001 µM. Further, the EC50 in data set [3] (setting [9]) was 0.001 µM.

Take `Cc1cn(-c2cc(NC(=O)c3ccc(C)c(Nc4nccc(-c5cccnc5)n4)c3)cc(C(F)(F)F)c2)cn1` [Nilotinib]: in the data set on intracellular T. cruzi [1], the “rate-of-kill profile (onset / rate of cidal activity)” value was “a much slower rate”. The “CYP51 inhibition (in words)” value on CYP51 is recorded as “strong CYP51 inhibition”. The Emax with intracellular T. cruzi [2] (setting [5]) was 38%. For the same molecule, the EC50 in data set [3] (setting [6]) was 2.51 µM.

For the molecule `CN1CCCC(n2nc(Cc3ccc(Cl)cc3)c3ccccc3c2=O)CC1` (stereo not drawn) [Azelastine], in the data set on intracellular T. cruzi [1], the MCC is 2e-06 M and the “rate-of-kill profile (onset / rate of cidal activity)” value is reported as “a more delayed response”. Also, the oral bioavailability entry in data set [4] is recorded as “reasonable oral bioavailability”. In addition, at CYP51 (setting [7]), the IC50 was above 10 µM. The EC50 in the data set with Vero cells is 15.8 µM. In the data set with intracellular T. cruzi [2] (setting [5]), the Emax was 106%. Also, the EC50 in data set [3] (setting [6]) is 0.251 µM.

As to `C[C@]12CC[C@H](O)CC1=CC[C@@H]1[C@@H]2CC[C@]2(C)C(c3cccnc3)=CC[C@@H]12` [Abiraterone], the MCC in the data set on intracellular T. cruzi [1] was 5.01e-05 M. Moreover, the IC50 at CYP51 (setting [7]) was above 1 µM. The EC50 was 31.6 µM in the data set with Vero cells and 0.794 µM in data set [3] (setting [6]). In the data set on intracellular T. cruzi [2] (setting [5]), the Emax was found to be 60%.

For `Clc1ccc(COC(Cn2ccnc2)c2ccc(Cl)cc2Cl)cc1` (stereo not drawn) [Econazole], the MCC in the data set on intracellular T. cruzi [1] was 6.31e-08 M. The Emax in the data set with intracellular T. cruzi [2] (setting [5]) is 63%.

As to `O=C(Cn1ccnc1[N+](=O)[O-])NCc1ccccc1` [Benznidazole], in the data set on intracellular T. cruzi [1], the “final residual level of infection (percent infected cells at the end of the assay)” value is ~ 8% and the “rate-of-kill profile (onset / rate of cidal activity)” value was “killing seen from 24h onwards”. In addition, at CYP51 (setting [7]), the IC50 was above 10 µM. For the same molecule, in the data set on intracellular T. cruzi [2], the “MAX PI / maximum inhibition” value is listed as “around 100%”. For the same molecule, the Emax in the data set with intracellular T. cruzi [2] (Trypanosoma cruzi, Vero, 96 h, read-out: MAX PI (SC), Maximum Percent Inhibition in the static cidal assay) came to 91%. In data set [3] (Trypanosoma cruzi, 72 h), this molecule came in with an EC50 of 0.49 µM. Also, the EC50 in data set [3] (Trypanosoma cruzi, 72 h, read-out: Mean pEC50 (converted)) is 0.501 µM.

On to `CC(=O)N1CCN(c2ccc(OCC3COC(Cn4ccnc4)(c4ccc(Cl)cc4Cl)O3)cc2)CC1` (stereo not drawn) [Ketoconazole], for which the MCC in the data set on intracellular T. cruzi [1] was 7.94e-09 M. In addition, the EC50 was 31.6 µM in the data set with Vero cells, 0.002 µM in data set [3] (setting [8]), 0.002 µM in data set [3] (setting [9]) and 0.00501 µM in data set [3] (setting [6]). For the same molecule, the Emax in the data set with intracellular T. cruzi [2] (setting [5]) stood at 61%.

In the case of `CN1CCC[C@@H]1CCO[C@](C)(c1ccccc1)c1ccc(Cl)cc1` [Clemastine], the MCC in the data set on intracellular T. cruzi [1] was 2e-07 M. Besides, the oral bioavailability entry in data set [4] was “reasonable oral bioavailability”.
